Test results reported in ChEMBL document CHEMBL1201862, “PubChem BioAssay data set” (2004).
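Growth conditions: 96-well plates. Treatment: test compound, 48 hours, 5 concentrations. Analysis: linear interpolation between bracketing concentrations; unreached endpoints set to highest concentration. GI50 = concentration required for 50% inhibition of growth.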 Active and inactive are the calls of the source. No stated cut-off is given here; in the data, active = GI50 up to about 1.1 µM and inactive = higher.

Columns and labels:
Experiment in all cases: DTP human tumour cell line panel, 48 h
M14 = test system: M14
SR = test system: SR
SN12C = test system: SN12C
SF-539 = test system: SF-539
Hs-578T = test system: Hs-578T
UACC-257 = test system: UACC-257
HOP-62 = test system: HOP-62
OVCAR-4 = test system: OVCAR-4
OVCAR-8 = test system: OVCAR-8
EKVX = test system: EKVX
OVCAR-5 = test system: OVCAR-5
OVCAR-3 = test system: OVCAR-3
SNB-75 = test system: SNB-75
MDA-MB-231 = test system: MDA-MB-231
SW-620 = test system: SW-620
HCT-15 = test system: HCT-15
PC-3 = test system: PC-3
SF-268 = test system: SF-268
A498 = test system: A498
MDA-MB-435 = test system: MDA-MB-435

**Q.** What does the source list for COC(=O)/C(C#N)=C1\NC(=O)CC(c2ccccc2)C1C#N (stereo not given)?
**A.** GI50 (M14): > 100 µM (inactive); GI50 (SR): > 100 µM (inactive); GI50 (SN12C): > 100 µM (inactive); GI50 (SF-539): > 100 µM (inactive); GI50 (Hs-578T): > 100 µM (inactive); GI50 (UACC-257): > 100 µM (inactive); GI50 (HOP-62): > 100 µM (inactive); GI50 (OVCAR-4): > 100 µM (inactive); GI50 (OVCAR-8): > 100 µM (inactive); GI50 (EKVX): > 100 µM (inactive); GI50 (OVCAR-5): > 100 µM (inactive); GI50 (OVCAR-3): > 100 µM (inactive); GI50 (SNB-75): > 100 µM (inactive); GI50 (MDA-MB-231): > 100 µM (inactive); GI50 (SW-620): > 100 µM (inactive); GI50 (HCT-15): > 100 µM; GI50 (PC-3): > 100 µM (inactive); GI50 (SF-268): > 100 µM (inactive)

**Q.** How did the GI50 (M14) turn out when O=C(/C=C/c1ccccc1)CCC1C(=O)NC(=S)NC1=O was run?
**A.** > 100 µM (inactive)

**Q.** What about the GI50 (SN12C) of the same compound?
**A.** > 100 µM (inactive)

**Q.** And the GI50 (SF-539)?
**A.** > 100 µM (inactive)

**Q.** What about the GI50 (Hs-578T) of the same compound?
**A.** > 100 µM (inactive)

**Q.** What about the GI50 (UACC-257) of the same compound?
**A.** > 100 µM (inactive)

**Q.** What about the GI50 (OVCAR-8) of the same compound?
**A.** > 100 µM (inactive)

**Q.** And the GI50 (OVCAR-5)?
**A.** > 100 µM (inactive)

**Q.** And the GI50 (OVCAR-3)?
**A.** > 100 µM (inactive)

**Q.** And the GI50 (MDA-MB-231)?
**A.** > 100 µM (inactive)

**Q.** And the GI50 (SW-620)?
**A.** > 100 µM (inactive)

**Q.** And the GI50 (HCT-15)?
**A.** > 100 µM

**Q.** What about the GI50 (A498) of the same compound?
**A.** > 100 µM (inactive)

**Q.** What about the GI50 (PC-3) of the same compound?
**A.** > 100 µM (inactive)

**Q.** And the GI50 (MDA-MB-435)?
**A.** > 100 µM (inactive)

**Q.** What about the GI50 (SF-268) of the same compound?
**A.** > 100 µM (inactive)

**Q.** Cc1ccc2c(=O)c(C(=O)NNC(=S)NC3CCCCC3)c[nH]c2n1 was tested. Which GI50 (M14) did it give?
**A.** 53.2 µM (inactive)

**Q.** What about the GI50 (SN12C) of the same compound?
**A.** 78.7 µM (inactive)

**Q.** And the GI50 (Hs-578T)?
**A.** 64.1 µM (inactive)

**Q.** And the GI50 (UACC-257)?
**A.** > 100 µM (inactive)

**Q.** What about the GI50 (HOP-62) of the same compound?
**A.** 68.1 µM (inactive)

**Q.** And the GI50 (OVCAR-4)?
**A.** 78.9 µM (inactive)

**Q.** What about the GI50 (OVCAR-8) of the same compound?
**A.** > 100 µM (inactive)

**Q.** And the GI50 (EKVX)?
**A.** 68.9 µM (inactive)

**Q.** And the GI50 (OVCAR-5)?
**A.** > 100 µM (inactive)

**Q.** And the GI50 (OVCAR-3)?
**A.** 71.8 µM (inactive)

**Q.** What about the GI50 (MDA-MB-231) of the same compound?
**A.** 52.7 µM (inactive)

**Q.** What about the GI50 (SW-620) of the same compound?
**A.** 40.6 µM (inactive)

**Q.** And the GI50 (HCT-15)?
**A.** > 100 µM

**Q.** What about the GI50 (A498) of the same compound?
**A.** > 100 µM (inactive)

**Q.** And the GI50 (PC-3)?
**A.** 45.4 µM (inactive)

**Q.** What about the GI50 (MDA-MB-435) of the same compound?
**A.** 30.1 µM (inactive)

**Q.** And the GI50 (SF-268)?
**A.** 96.8 µM (inactive)

**Q.** CC(=O)CCC1(C(=O)OCC(C)C)CCCC1=O (stereo not given) was tested. Which GI50 (M14) did it give?
**A.** > 100 µM (inactive)

**Q.** What about the GI50 (SN12C) of the same compound?
**A.** > 100 µM (inactive)

**Q.** And the GI50 (SF-539)?
**A.** > 100 µM (inactive)

**Q.** What about the GI50 (Hs-578T) of the same compound?
**A.** > 100 µM (inactive)

**Q.** And the GI50 (UACC-257)?
**A.** > 100 µM (inactive)

**Q.** And the GI50 (HOP-62)?
**A.** > 100 µM (inactive)

**Q.** And the GI50 (OVCAR-4)?
**A.** > 100 µM (inactive)

**Q.** What about the GI50 (OVCAR-8) of the same compound?
**A.** > 100 µM (inactive)

**Q.** And the GI50 (EKVX)?
**A.** > 100 µM (inactive)

**Q.** What about the GI50 (OVCAR-5) of the same compound?
**A.** > 100 µM (inactive)

**Q.** What about the GI50 (OVCAR-3) of the same compound?
**A.** 63.4 µM (inactive)

**Q.** What about the GI50 (SNB-75) of the same compound?
**A.** > 100 µM (inactive)

**Q.** And the GI50 (MDA-MB-231)?
**A.** > 100 µM (inactive)

**Q.** And the GI50 (SW-620)?
**A.** > 100 µM (inactive)

**Q.** And the GI50 (HCT-15)?
**A.** > 100 µM

**Q.** And the GI50 (PC-3)?
**A.** > 100 µM (inactive)

**Q.** What about the GI50 (MDA-MB-435) of the same compound?
**A.** > 100 µM (inactive)

**Q.** And the GI50 (SF-268)?
**A.** > 100 µM (inactive)

**Q.** Which results are given for O=C1CC(=O)c2c(N3CCCC3)sc(N3CCCC3)c21?
**A.** GI50 (M14): > 100 µM (inactive); GI50 (SR): > 100 µM (inactive); GI50 (SN12C): > 100 µM (inactive); GI50 (SF-539): > 100 µM (inactive); GI50 (Hs-578T): > 100 µM (inactive); GI50 (UACC-257): > 100 µM (inactive); GI50 (HOP-62): > 100 µM (inactive); GI50 (OVCAR-4): > 100 µM (inactive); GI50 (OVCAR-8): > 100 µM (inactive); GI50 (EKVX): > 100 µM (inactive); GI50 (OVCAR-5): > 100 µM (inactive); GI50 (OVCAR-3): > 100 µM (inactive); GI50 (SNB-75): > 100 µM (inactive); GI50 (SW-620): > 100 µM (inactive); GI50 (HCT-15): > 100 µM; GI50 (A498): > 100 µM (inactive); GI50 (PC-3): > 100 µM (inactive); GI50 (MDA-MB-435): > 100 µM (inactive); GI50 (SF-268): > 100 µM (inactive)

**Q.** How did the GI50 (M14) turn out when COC(=O)CCCC(=O)NC1=C(NCc2ccccc2)C(=O)c2ccccc2C1=O was run?
**A.** 29.6 µM (inactive)

**Q.** And the GI50 (SR)?
**A.** 46.5 µM (inactive)

**Q.** And the GI50 (SN12C)?
**A.** 52.5 µM (inactive)

**Q.** What about the GI50 (SF-539) of the same compound?
**A.** 36.4 µM (inactive)

**Q.** What about the GI50 (Hs-578T) of the same compound?
**A.** > 100 µM (inactive)

**Q.** And the GI50 (UACC-257)?
**A.** 29.7 µM (inactive)

**Q.** What about the GI50 (OVCAR-4) of the same compound?
**A.** 47.9 µM (inactive)

**Q.** And the GI50 (OVCAR-8)?
**A.** 68.4 µM (inactive)

**Q.** What about the GI50 (EKVX) of the same compound?
**A.** 51.4 µM (inactive)

**Q.** And the GI50 (OVCAR-5)?
**A.** > 100 µM (inactive)

**Q.** And the GI50 (OVCAR-3)?
**A.** 23 µM (inactive)

**Q.** What about the GI50 (SNB-75) of the same compound?
**A.** > 100 µM (inactive)

**Q.** And the GI50 (MDA-MB-231)?
**A.** 50.1 µM (inactive)

**Q.** What about the GI50 (SW-620) of the same compound?
**A.** 60.8 µM (inactive)

**Q.** And the GI50 (HCT-15)?
**A.** 52.4 µM

**Q.** And the GI50 (A498)?
**A.** > 100 µM (inactive)

**Q.** What about the GI50 (MDA-MB-435) of the same compound?
**A.** 42.4 µM (inactive)

**Q.** And the GI50 (SF-268)?
**A.** > 100 µM (inactive)
